Experimental data as given in ChEMBL document CHEMBL1201862, “PubChem BioAssay data set” (2004).
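A five-concentration, 48-hour dose response in 96-well plates underlies each endpoint, interpolated linearly between surrounding concentrations. The concentration for 50% growth inhibition is given as GI50.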 Active and inactive are the calls of the source. No stated cut-off is given here; in the data, active = GI50 up to about 1.1 µM and inactive = higher.

Experiments:
Assay in all cases: inhibition of tumour cell growth, NCI panel, 48 h
SF-295 = system: SF-295
KM12 = system: KM12
SR = system: SR
A549 = system: A549
K562 = system: K562
COLO 205 = system: COLO 205
MDA-MB-435 = system: MDA-MB-435
OVCAR-8 = system: OVCAR-8
RPMI-8226 = system: RPMI-8226
HOP-62 = system: HOP-62
RXF 393 = system: RXF 393
IGROV-1 = system: IGROV-1
NCI-H226 = system: NCI-H226
Malme-3M = system: Malme-3M
U-251 = system: U-251
CAKI-1 = system: CAKI-1
LOX IMVI = system: LOX IMVI
MDA-N = system: MDA-N
UACC-257 = system: UACC-257
MDA-MB-231 = system: MDA-MB-231
HCT-116 = system: HCT-116
SW-620 = system: SW-620
A498 = system: A498
UO-31 = system: UO-31
SF-268 = system: SF-268
HCT-15 = system: HCT-15
UACC-62 = system: UACC-62
SK-MEL-28 = system: SK-MEL-28
786-0 = system: 786-0
BT-549 = system: BT-549
NCI-H23 = system: NCI-H23
HOP-92 = system: HOP-92
SK-OV-3 = system: SK-OV-3
OVCAR-5 = system: OVCAR-5
MOLT-4 = system: MOLT-4
HT-29 = system: HT-29
NCI/ADR-RES = system: NCI/ADR-RES
SNB-19 = system: SNB-19
EKVX = system: EKVX
OVCAR-4 = system: OVCAR-4
CCRF-CEM = system: CCRF-CEM
NCI-H460 = system: NCI-H460
PC-3 = system: PC-3
SK-MEL-2 = system: SK-MEL-2
NCI-H522 = system: NCI-H522
T47D = system: T47D
ACHN = system: ACHN
DU-145 = system: DU-145
OVCAR-3 = system: OVCAR-3
M14 = system: M14
TK-10 = system: TK-10
SK-MEL-5 = system: SK-MEL-5
SF-539 = system: SF-539
HL-60 = system: HL-60
MCF7 = system: MCF7
Hs-578T = system: Hs-578T
SN12C = system: SN12C
SNB-75 = system: SNB-75
HCC 2998 = system: HCC 2998

O=C(O)C1Cc2c([nH]c3ccccc23)C(CCCCO)N1 (centres undefined)
GI50 (SF-295): > 100 µM (inactive)
GI50 (KM12): > 100 µM (inactive)
GI50 (SR): > 100 µM (inactive)
GI50 (A549): > 100 µM (inactive)
GI50 (K562): > 100 µM (inactive)
GI50 (COLO 205): > 100 µM (inactive)
GI50 (MDA-MB-435): > 100 µM (inactive)
GI50 (OVCAR-8): > 100 µM (inactive)
GI50 (RPMI-8226): > 100 µM (inactive)
GI50 (HOP-62): > 100 µM (inactive)
GI50 (RXF 393): > 100 µM (inactive)
GI50 (IGROV-1): > 100 µM (inactive)
GI50 (NCI-H226): > 100 µM (inactive)
GI50 (Malme-3M): > 100 µM (inactive)
GI50 (U-251): > 100 µM (inactive)
GI50 (CAKI-1): > 100 µM (inactive)
GI50 (LOX IMVI): > 100 µM (inactive)
GI50 (MDA-N): > 100 µM (inactive)
GI50 (UACC-257): > 100 µM (inactive)
GI50 (MDA-MB-231): > 100 µM (inactive)
GI50 (HCT-116): > 100 µM (inactive)
GI50 (SW-620): > 100 µM (inactive)
GI50 (A498): > 100 µM (inactive)
GI50 (UO-31): > 100 µM (inactive)
GI50 (SF-268): > 100 µM (inactive)
GI50 (HCT-15): > 100 µM
GI50 (UACC-62): > 100 µM (inactive)
GI50 (SK-MEL-28): > 100 µM (inactive)
GI50 (786-0): > 100 µM (inactive)
GI50 (BT-549): > 100 µM (inactive)
GI50 (NCI-H23): > 100 µM (inactive)
GI50 (HOP-92): > 100 µM (inactive)
GI50 (SK-OV-3): > 100 µM (inactive)
GI50 (OVCAR-5): > 100 µM (inactive)
GI50 (MOLT-4): > 100 µM (inactive)
GI50 (HT-29): > 100 µM (inactive)
GI50 (NCI/ADR-RES): > 100 µM (inactive)
GI50 (SNB-19): > 100 µM (inactive)
GI50 (EKVX): > 100 µM (inactive)
GI50 (OVCAR-4): > 100 µM (inactive)
GI50 (CCRF-CEM): > 100 µM (inactive)
GI50 (NCI-H460): > 100 µM (inactive)
GI50 (PC-3): > 100 µM (inactive)
GI50 (SK-MEL-2): > 100 µM (inactive)
GI50 (NCI-H522): > 100 µM (inactive)
GI50 (T47D): > 100 µM (inactive)
GI50 (ACHN): > 100 µM (inactive)
GI50 (DU-145): > 100 µM (inactive)
GI50 (OVCAR-3): > 100 µM (inactive)
GI50 (M14): > 100 µM (inactive)
GI50 (TK-10): > 100 µM (inactive)
GI50 (SK-MEL-5): > 100 µM (inactive)
GI50 (SF-539): > 100 µM (inactive)
GI50 (HL-60): > 100 µM (inactive)
GI50 (MCF7): > 100 µM (inactive)
GI50 (Hs-578T): > 100 µM (inactive)
GI50 (SN12C): > 100 µM (inactive)

Cc1nn(C(=O)c2ccncc2)c2c1C(c1ccccc1)SC(=N)N2 (centres undefined)
GI50 (SF-295): > 10 µM (inactive)
GI50 (KM12): > 10 µM (inactive)
GI50 (SR): > 10 µM (inactive)
GI50 (A549): > 10 µM (inactive)
GI50 (K562): > 10 µM (inactive)
GI50 (COLO 205): > 10 µM (inactive)
GI50 (MDA-MB-435): > 10 µM (inactive)
GI50 (OVCAR-8): > 10 µM (inactive)
GI50 (RPMI-8226): > 10 µM (inactive)
GI50 (HOP-62): > 10 µM (inactive)
GI50 (RXF 393): > 10 µM (inactive)
GI50 (IGROV-1): > 10 µM (inactive)
GI50 (NCI-H226): > 10 µM (inactive)
GI50 (Malme-3M): > 10 µM (inactive)
GI50 (U-251): > 10 µM (inactive)
GI50 (CAKI-1): > 10 µM (inactive)
GI50 (LOX IMVI): > 10 µM (inactive)
GI50 (MDA-N): > 10 µM (inactive)
GI50 (UACC-257): > 10 µM (inactive)
GI50 (MDA-MB-231): > 10 µM (inactive)
GI50 (HCT-116): > 10 µM (inactive)
GI50 (SW-620): > 10 µM (inactive)
GI50 (SF-268): > 10 µM (inactive)
GI50 (HCT-15): > 10 µM
GI50 (UACC-62): > 10 µM (inactive)
GI50 (SK-MEL-28): > 10 µM (inactive)
GI50 (786-0): > 10 µM (inactive)
GI50 (BT-549): > 10 µM (inactive)
GI50 (NCI-H23): > 10 µM (inactive)
GI50 (HOP-92): > 10 µM (inactive)
GI50 (SK-OV-3): > 10 µM (inactive)
GI50 (OVCAR-5): > 10 µM (inactive)
GI50 (MOLT-4): > 10 µM (inactive)
GI50 (HT-29): > 10 µM (inactive)
GI50 (NCI/ADR-RES): > 10 µM (inactive)
GI50 (SNB-19): > 10 µM (inactive)
GI50 (EKVX): > 10 µM (inactive)
GI50 (OVCAR-4): > 10 µM (inactive)
GI50 (CCRF-CEM): > 10 µM (inactive)
GI50 (NCI-H460): > 10 µM (inactive)
GI50 (PC-3): > 10 µM (inactive)
GI50 (SK-MEL-2): > 10 µM (inactive)
GI50 (NCI-H522): > 10 µM (inactive)
GI50 (T47D): > 10 µM (inactive)
GI50 (SNB-75): > 10 µM (inactive)
GI50 (ACHN): > 10 µM (inactive)
GI50 (DU-145): > 10 µM (inactive)
GI50 (OVCAR-3): > 10 µM (inactive)
GI50 (M14): > 10 µM (inactive)
GI50 (TK-10): > 10 µM (inactive)
GI50 (SK-MEL-5): > 10 µM (inactive)
GI50 (HCC 2998): > 10 µM (inactive)
GI50 (SF-539): > 10 µM (inactive)
GI50 (HL-60): > 10 µM (inactive)
GI50 (MCF7): > 10 µM (inactive)
GI50 (Hs-578T): > 10 µM (inactive)
GI50 (SN12C): > 10 µM (inactive)
